Experiment [1] has as its target T1, G protein-activated inward rectifier potassium channel 4 (Homo sapiens, UniProt P48544).
T1 sequence (P48544 whole entry): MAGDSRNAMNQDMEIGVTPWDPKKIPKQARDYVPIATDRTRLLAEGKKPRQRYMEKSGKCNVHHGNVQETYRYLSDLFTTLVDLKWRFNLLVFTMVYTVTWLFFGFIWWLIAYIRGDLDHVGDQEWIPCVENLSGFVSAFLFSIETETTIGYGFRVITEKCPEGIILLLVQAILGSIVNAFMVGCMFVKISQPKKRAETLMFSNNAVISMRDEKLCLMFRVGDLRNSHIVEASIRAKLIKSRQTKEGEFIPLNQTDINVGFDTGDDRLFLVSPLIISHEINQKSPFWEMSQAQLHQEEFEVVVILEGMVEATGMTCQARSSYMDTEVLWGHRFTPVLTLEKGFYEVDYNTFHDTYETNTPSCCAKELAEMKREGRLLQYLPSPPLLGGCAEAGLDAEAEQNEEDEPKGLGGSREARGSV
The experiment is described as follows: Inhibition of GIRK1/4 (unknown origin).

Experiment [2] has as its target T2, G protein-activated inward rectifier potassium channel 1 (Homo sapiens, UniProt P48549).
T2 sequence (P48549 whole entry): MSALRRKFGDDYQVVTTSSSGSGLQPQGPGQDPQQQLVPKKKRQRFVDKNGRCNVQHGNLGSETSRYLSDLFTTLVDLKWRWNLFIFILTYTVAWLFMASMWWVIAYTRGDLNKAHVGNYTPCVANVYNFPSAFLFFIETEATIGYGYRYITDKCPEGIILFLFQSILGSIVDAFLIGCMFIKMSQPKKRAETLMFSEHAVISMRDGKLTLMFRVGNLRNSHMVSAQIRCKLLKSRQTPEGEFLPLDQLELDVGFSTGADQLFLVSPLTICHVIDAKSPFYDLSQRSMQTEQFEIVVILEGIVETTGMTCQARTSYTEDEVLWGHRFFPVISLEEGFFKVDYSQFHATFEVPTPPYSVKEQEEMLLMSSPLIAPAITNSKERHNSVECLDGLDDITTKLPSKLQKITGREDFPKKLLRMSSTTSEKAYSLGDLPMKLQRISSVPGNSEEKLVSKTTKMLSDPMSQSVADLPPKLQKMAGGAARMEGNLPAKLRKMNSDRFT
The experiment in a line: Inhibition of GIRK1/2 (unknown origin).

Usually IC50 stands for the concentration that gives 50% inhibition.

In the case of `O=C(Nc1ccc(F)c(F)c1)Nc1cc(C(F)(F)F)nn1-c1ccccc1`, the half-inhibitory concentration (IC50) in experiment [1] and in experiment [2] was 30 µM throughout.

For the molecule `O=C(Nc1ccc(F)c(F)c1)Nc1cc(C2CCC2)nn1-c1ccccc1`, the IC50 in experiment [1] and in experiment [2] was 30 µM throughout.

Consider `O=C(Nc1ccc(F)c(F)c1)Nc1cc(-c2ccccc2)nn1-c1ccccc1`, for which the concentration for half-maximal inhibition (IC50) in experiment [1] and in experiment [2] was 30 µM each time.

(Values after BindingDB's records for doi:10.1016/j.bmcl.2013.06.023 (Northwest Agriculture & Forestry University, 2013).)
